# Values quoted from earlier work as cited in patent EP0716679B1, “METHOD OF CLEANING VINYL SURFACES BY MEANS OF MILDLY ACIDIC HARD SURFACE CLEANING COMPOSITIONS CONTAINING AMINE OXIDE DETERGENT SURFACTANTS” (THE PROCTER & GAMBLE COMPANY, priority 1993, dated 1995).
# Read-outs that look alike come from different tables or passages of the source.
Compound,pKa of acidifying agent (first pKa),pKa of acidifying agent (fourth pKa printed),pKa of acidifying agent (second pKa),pKa of acidifying agent (third pKa printed)
O=C(O)CN(CCN(CC(=O)O)CC(=O)O)CC(=O)O [Ethylene diamine tetraacetic acid],1.7,10.6,2.6,6.3
O=C(O)CC(O)C(=O)O (stereo not shown) [Malic acid],,,5.05,
